Literature values as cited in US20030039681A1, “Rapid growth dairy heifers having reduced mammary fat content” (priority 2001, published 2003).

How the values were obtained:
[1] = system: lactating dairy cattle; details: abomasal infusion
[2] = system: adipose tissue; details: growing pigs, CLA-supplement fed
[3] = system: preadipocytes

Substance: conjugated linoleic acid [CLA]
- milk fat content [1]: decreases
- carcass lipid content [2]: lower
- lipogenesis in adipose tissue [2]: decreases
- proliferation of preadipocytes [3]: inhibits
